Read-outs that look alike come from different tables or passages of the source.
What was measured:
Assay type in all cases: cell-based
[1] = test system: E. coli (VIM-1); experiment: Microbroth dilution MIC of meropenem ± 25 mg/L inhibitor
Protocol: (§1) • Plate bacterial strain(s) on appropriate media: • Gram-negative bacteria with ESBLs or carbapenemases: green agar plates with 100 mg/L ampicillin • Gram-negative bacteria without β-lactamases: green agar plates • Gram-positive bacteria (Staphylococci and Enterococci): blood agar plates • Incubate o.n. at 37° C. Day 2: Prepare the Bacterial Inoculum: • Prepare a 0.5 McFarland suspension of bacteria in 0.85% NaCl. (Should be used within 15 min of preparation). • Dilute the 0.5 McFarland suspension 1:100 into MH broth. Check the inoculum by diluting the prepared bacterial suspension 1:100 (10 μl bacterial suspension+990 μl 0.85% NaCl). Plate 10 μl of the dilution on MH agar plates (×2). Incubate o.n. at 37° C., count the colonies and calculate the final CFU/ml inoculum in the plate by multiplying the average number of colonies with 10000 and divide by 2. The final inoculum should be between 3-7×10^5 CFU/ml. • Add 50 μl of the prepared bacterial suspension to each well in the microtiter plate except negative growth control. Preparation of Compounds/Antibiotics • Calculate the desired concentration-range and volume of the compounds/antibiotics in the assay. […] Dilute the stock solution in MH broth. Make subsequent 2-fold dilutions in MH broth of the desired concentrations if a concentration range is to be tested (remember the extra dilution factor in the assay plate). Always include extra volume for pipetting. Take into consideration stock solutions that are made in buffers that have an effect on bacterial growth (e.g. DMSO).

[2] = test system: C. freundii (NDM); experiment: as above
Protocol: as §1

[3] = test system: K. pneumoniae (VIM); experiment: as above
Protocol: as §1

[4] = test system: E. cloacae (VIM); experiment: as above
Protocol: as §1

[5] = test system: K. pneumoniae (NDM-7); experiment: as above
Protocol: as §1

[6] = test system: P. stuartii (NDM); experiment: as above
Protocol: as §1

[7] = test system: C. freundii (NDM-1); experiment: as above
Protocol: as §1

[8] = test system: P. mirabilis (NDM-1); experiment: as above
Protocol: as §1

[9] = test system: M. morganii (OXA48+ NDM-1); experiment: as above
Protocol: as §1

[10] = test system: P. stuartii (NDM-1); experiment: as above
Protocol: as §1

[11] = test system: K. pneumoniae (NDM-1); experiment: as above
Protocol: as §1

[12] = test system: K. pneumonia 50825040 (NDM-1); experiment: Checkerboard MIC, Example 26 and meropenem; details: for MIC: Klebsiella pneumoniae
Protocol: (§2) A checkerboard MIC assay was using the broth dilution method according to CLSI guidelines. […] Dilutions to 4 mg/ml was performed by adding+4.75 ml sterile saline to 0.25 ml of the stock solution, and dilutions to 512 μg/ml was performed by adding 10.9 ml MH-broth to the 4 mg/ml solution. Inoculums of bacterial strains as described in Table 4 were prepared by suspending fresh overnight colonies from 5% horse blood agar were to a turbidity of 0.5 McFarland and further diluted to 1×10^6 CFU/ml in MH-broth. Aliquots of 50 μl of MH-broth were added to each well of polystyrene microtiter plates. […] The plates were incubated at 35° C., 16-20 hours.

[13] = test system: K. pneumonia 50877064 (NDM-1); experiment: Checkerboard MIC, Example 26 and meropenem; details: for MIC: Klebsiella pneumoniae
Protocol: as §2

[14] = test system: K. pneumonia 50752501 (NDM-1); experiment: Checkerboard MIC, Example 26 and meropenem; details: for MIC: Klebsiella pneumoniae
Protocol: as §2

[15] = test system: K. pneumonia K66-45 (NDM-1); experiment: Checkerboard MIC, Example 26 and meropenem; details: for MIC: Klebsiella pneumoniae
Protocol: as §2

[16] = test system: E. coli 50739822 (NDM-1); experiment: Checkerboard MIC, Example 26 and meropenem; details: for MIC: Escherichia coli
Protocol: as §2

[17] = test system: E. coli 50921466 (VIM-1); experiment: Checkerboard MIC, Example 26 and meropenem; details: for MIC: Escherichia coli
Protocol: as §2

[18] = test system: K. pneumonia K45-67 (VIM-1); experiment: Checkerboard MIC, Example 26 and meropenem; details: for MIC: Klebsiella pneumoniae
Protocol: as §2

[19] = test system: K. pneumonia 50627996 (NDM-1); experiment: Checkerboard MIC, Example 26 and meropenem; details: for MIC: Klebsiella pneumoniae
Protocol: as §2

[20] = test system: K. pneumonia 50690310 (NDM-1); experiment: Checkerboard MIC, Example 26 and meropenem; details: for MIC: Klebsiella pneumoniae
Protocol: as §2

[21] = test system: E. coli 50676002 (NDM-1); experiment: Checkerboard MIC, Example 26 and meropenem; details: for MIC: Escherichia coli
Protocol: as §2

[22] = test system: K. pneumonia 50923744 (VIM); experiment: Checkerboard MIC, Example 26 and meropenem; details: for MIC: Klebsiella pneumoniae
Protocol: as §2

[23] = test system: E. coli AMA817 (NDM-1); experiment: Checkerboard MIC, Example 26 and meropenem; details: for MIC: Escherichia coli
Protocol: as §2

[24] = test system: K. pneumonia K46-62 (VIM-1); experiment: Checkerboard MIC, Example 26 and meropenem; details: for MIC: Klebsiella pneumoniae
Protocol: as §2

[25] = test system: E. coli AMA323 (VIM-4); experiment: Checkerboard MIC, Example 26 and meropenem; details: for MIC: Escherichia coli
Protocol: as §2

[26] = test system: E. coli AMA1563 (NDM-5); experiment: Checkerboard MIC, Example 26 and meropenem; details: for MIC: Escherichia coli
Protocol: as §2

[27] = K. pneumoniae NDM-1 (several strains)
[28] = read-out: MIC alone, Example 26
[29] = Citrobacter freundii, read-out: MIC meropenem alone
[30] = Klebsiella pneumoniae, read-out: MIC meropenem alone
[31] = Providencia stuartii, read-out: MIC meropenem alone

CN(C[C@H](O)[C@@H](O)[C@H](O)[C@H](O)CO)C(=O)c1ccc(CN(Cc2ccccn2)Cc2ccccn2)nc1 [Example 26, 6-((bis(pyridin-2-ylmethyl)amino)methyl)-N-methyl-N-((2S,3R,4R,5R)-2,3,4,5,6-pentahydroxyhexyl)nicotinamide]
0.25 mg/L: MIC meropenem + 25 mg/L Example 26 [6]
0.125 mg/L: MIC meropenem + 25 mg/L Example 26 [8] | MIC meropenem + 25 mg/L Example 26 [11, 27]
12.5 mg/L: MIC in combination, Example 26 ([12]; with meropenem) | MIC in combination, Example 26 ([13]; with meropenem) | MIC in combination, Example 26 ([15]; with meropenem) | MIC in combination, Example 26 ([16]; with meropenem) | MIC in combination, Example 26 ([17]; with meropenem) | MIC in combination, Example 26 ([18]; with meropenem) | MIC in combination, Example 26 ([19]; with meropenem) | MIC in combination, Example 26 ([20]; with meropenem) | MIC in combination, Example 26 ([21]; with meropenem) | MIC in combination, Example 26 ([22]; with meropenem) | MIC in combination, Example 26 ([23]; with meropenem) | MIC in combination, Example 26 ([24]; with meropenem) | MIC in combination, Example 26 ([25]; with meropenem)
> 400 µg/mL: MIC [12, 28] | MIC [13, 28] | MIC [14, 28] | MIC [15, 28] | MIC [16, 28] | MIC [17, 28] | MIC [18, 28] | MIC [19, 28] | MIC [20, 28] | MIC [21, 28] | MIC [22, 28] | MIC [23, 28] | MIC [24, 28] | MIC [25, 28] | MIC [26, 28]
<0.03 mg/L: MIC meropenem + 25 mg/L Example 26 [1] | MIC meropenem + 25 mg/L Example 26 [4] | MIC meropenem + 25 mg/L Example 26 [5]
0.06 mg/L: MIC meropenem + 25 mg/L Example 26 [2] | MIC meropenem + 25 mg/L Example 26 [3] | MIC meropenem + 25 mg/L Example 26 [7] | MIC meropenem + 25 mg/L Example 26 [10]
1 mg/L: MIC meropenem + 25 mg/L Example 26 [9]
25 mg/L: MIC in combination, Example 26 ([14]; with meropenem) | MIC in combination, Example 26 ([26]; with meropenem)

C[C@@H](O)[C@H]1C(=O)N2C(C(=O)O)=C(S[C@@H]3CN[C@H](C(=O)N(C)C)C3)[C@H](C)[C@H]12 [meropenem, reference compound]
16 µg/mL: MIC [2, 29] | MIC ([20]; read-out: MIC alone, Meropenem)
4 µg/mL: MIC [3, 30] | MIC [7, 29]
0.125 mg/L: MIC in combination, Meropenem ([19]; with Example 26)
64 µg/mL: MIC [5, 30] | MIC [6, 31] | MIC ([11]; Klebsiella pneumoniae, read-out: MIC meropenem alone, K. pneumoniae NDM-1 (several strains)) | MIC ([12]; read-out: MIC alone, Meropenem) | MIC ([13]; read-out: MIC alone, Meropenem) | MIC ([14]; read-out: MIC alone, Meropenem) | MIC ([15]; read-out: MIC alone, Meropenem) | MIC ([19]; read-out: MIC alone, Meropenem) | MIC ([26]; read-out: MIC alone, Meropenem)
32 mg/L: MIC meropenem alone [11, 27]
8 µg/mL: MIC ([4]; Enterobacter cloacae, read-out: MIC meropenem alone) | MIC ([9]; Morganella morganii, read-out: MIC meropenem alone) | MIC [10, 31] | MIC ([25]; read-out: MIC alone, Meropenem)
≤0.0625 mg/L: MIC in combination, Meropenem ([12]; with Example 26) | MIC in combination, Meropenem ([13]; with Example 26) | MIC in combination, Meropenem ([14]; with Example 26) | MIC in combination, Meropenem ([15]; with Example 26) | MIC in combination, Meropenem ([16]; with Example 26) | MIC in combination, Meropenem ([17]; with Example 26) | MIC in combination, Meropenem ([18]; with Example 26) | MIC in combination, Meropenem ([20]; with Example 26) | MIC in combination, Meropenem ([21]; with Example 26) | MIC in combination, Meropenem ([22]; with Example 26) | MIC in combination, Meropenem ([23]; with Example 26) | MIC in combination, Meropenem ([24]; with Example 26) | MIC in combination, Meropenem ([25]; with Example 26) | MIC in combination, Meropenem ([26]; with Example 26)
0.5 µg/mL: MIC ([1]; Escherichia coli, read-out: MIC meropenem alone)
32 µg/mL: MIC ([8]; Proteus mirabilis, read-out: MIC meropenem alone) | MIC ([16]; read-out: MIC alone, Meropenem) | MIC ([18]; read-out: MIC alone, Meropenem) | MIC ([21]; read-out: MIC alone, Meropenem) | MIC ([23]; read-out: MIC alone, Meropenem) | MIC ([24]; read-out: MIC alone, Meropenem)
2 µg/mL: MIC ([17]; read-out: MIC alone, Meropenem) | MIC ([22]; read-out: MIC alone, Meropenem)

— patent publication US11649222B2, “Compounds” (UNIVERSITETET I OSLO, priority 2016, dated 2023)
